Experiments:
Assay in all cases: relative viability (nuclei count vs DMSO), 5 days (fraction); higher = more cells survive
Erlotinib + Palbociclib = compound: C#Cc1cccc(Nc2ncnc3cc(OCCOC)c(OCCOC)cc23)c1 [Erlotinib] + CC(=O)c1c(C)c2cnc(Nc3ccc(N4CCNCC4)cn3)nc2n(C2CCCC2)c1=O [Palbociclib] (partner 0.5 µM)
Outline: (§1)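 Lung cancer cell lines were seeded in 1536-well plates and dosed by pin tool the next day, with either a single drug or a fixed anchor-drug dose combined with five library-drug doses (not always all listed) spaced in √10 steps. Five days later, one step fixed the cells and stained their nuclei (final 0.05% Triton X-100, 1% formaldehyde, 1 ug/ml Hoechst), and nuclei were counted on 4× images. Relative viability is the nuclei count in treated wells divided by the count in vehicle wells, and each value is the median of duplicate plates.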

Erlotinib + Foretinib = compound: C#Cc1cccc(Nc2ncnc3cc(OCCOC)c(OCCOC)cc23)c1 [Erlotinib] + COc1cc2c(Oc3ccc(NC(=O)C4(C(=O)Nc5ccc(F)cc5)CC4)cc3F)ccnc2cc1OCCCN1CCOCC1 [Foretinib] (partner 0.25 µM)
Outline: as §1

Erlotinib + Pemetrexed = compound: C#Cc1cccc(Nc2ncnc3cc(OCCOC)c(OCCOC)cc23)c1 [Erlotinib] + Nc1nc2[nH]cc(CCc3ccc(C(=O)N[C@@H](CCC(=O)O)C(=O)O)cc3)c2c(=O)[nH]1 [Pemetrexed] (partner 0.2 µM)
Outline: as §1

AT9283 + Bortezomib = compound: O=C(Nc1c[nH]nc1-c1nc2ccc(CN3CCOCC3)cc2[nH]1)NC1CC1 [AT9283] + CC(C)C[C@H](NC(=O)[C@H](Cc1ccccc1)NC(=O)c1cnccn1)B(O)O [Bortezomib] (partner 0.002 µM)
Outline: as §1

AT9283 + Tozasertib = compound: O=C(Nc1c[nH]nc1-c1nc2ccc(CN3CCOCC3)cc2[nH]1)NC1CC1 [AT9283] + Cc1cc(Nc2cc(N3CCN(C)CC3)nc(Sc3ccc(NC(=O)C4CC4)cc3)n2)n[nH]1 [Tozasertib] (partner 0.1 µM)
Outline: as §1

Cell Line	relative viability (Erlotinib + Palbociclib; first compound 0.02 µM)	relative viability (Erlotinib + Palbociclib; first compound 0.2 µM)	relative viability (Erlotinib + Palbociclib; first compound 0.6325 µM)	relative viability (Erlotinib + Palbociclib; first compound 2 µM)	relative viability (Erlotinib + Foretinib; first compound 0.6325 µM)	relative viability (Erlotinib + Foretinib; first compound 2 µM)	relative viability (Erlotinib + Pemetrexed; first compound 0.02 µM)	relative viability (Erlotinib + Pemetrexed; first compound 0.2 µM)	relative viability (Erlotinib + Pemetrexed; first compound 0.6325 µM)	relative viability (Erlotinib + Pemetrexed; first compound 2 µM)	relative viability (AT9283 + Bortezomib; first compound 0.003 µM)	relative viability (AT9283 + Bortezomib; first compound 0.03 µM)	relative viability (AT9283 + Bortezomib; first compound 0.09487 µM)	relative viability (AT9283 + Bortezomib; first compound 0.3 µM)	relative viability (AT9283 + Tozasertib; first compound 0.003 µM)	relative viability (AT9283 + Tozasertib; first compound 0.03 µM)	relative viability (AT9283 + Tozasertib; first compound 0.09487 µM)	relative viability (AT9283 + Tozasertib; first compound 0.3 µM)	relative viability (Erlotinib + Foretinib; first compound 0.02 µM)	relative viability (Erlotinib + Foretinib; first compound 0.2 µM)
201T	0.35	0.323	0.319	0.287	1.17	0.888	0.339	0.336	0.348	0.32	1.02	1.14	1.09	0.487	0.871	0.6	0.35	0.302	–	–
A549	–	–	–	–	0.902	0.786	–	–	–	–	–	–	–	–	–	–	–	–	0.795	0.947
A-427	0.485	0.492	0.529	0.53	1.15	1.02	0.967	1.04	1.06	1.01	0.977	0.427	0.216	0.188	0.186	0.179	0.168	0.161	1.17	1.01
ABC-1	–	0.585	0.489	–	1.06	0.818	–	–	–	–	1.05	0.261	0.117	0.283	0.198	0.17	0.172	0.183	1.03	0.547
BEN	0.497	0.442	0.507	0.483	1	0.872	0.766	0.83	1.03	0.766	0.688	0.739	0.242	0.27	0.598	0.503	0.387	0.376	0.679	0.663
CAL-12T	0.433	0.125	0.154	0.146	0.513	0.484	1.43	1.15	0.929	0.662	0.89	0.896	0.547	0.212	0.31	0.29	0.212	0.215	1.04	1.04
COR-L23	0.292	0.287	0.383	0.29	1.18	0.928	0.205	0.178	0.195	0.19	1.05	0.664	0.23	0.152	0.278	0.135	0.112	0.132	1.11	0.947
COR-L 105	0.402	0.322	0.359	0.328	0.487	0.248	0.967	0.835	0.535	0.352	0.758	0.303	0.352	0.249	0.384	0.318	0.283	0.288	0.81	0.461
Calu-6	–	–	–	–	0.886	0.803	–	–	–	–	0.956	0.297	0.272	0.254	–	–	–	–	0.94	0.838
ChaGo-K-1	0.89	0.952	0.951	0.854	0.923	0.879	0.276	0.259	0.267	0.26	0.889	0.908	0.356	0.303	0.196	0.208	0.215	0.236	0.913	0.836
EBC-1	–	–	–	–	0.104	0.0948	–	–	–	–	0.526	0.239	0.172	0.169	–	–	–	–	0.0955	0.0898
EKVX	0.348	0.191	0.205	0.115	0.267	0.267	0.411	0.283	0.286	0.19	0.996	0.652	0.636	0.351	0.377	0.312	0.317	0.183	0.519	–
EMC-BAC-2	0.529	0.501	0.553	0.505	0.877	0.898	0.466	0.425	0.432	0.421	1.04	0.792	0.216	0.204	0.283	0.192	0.198	0.133	1.05	0.778
EPLC-272H	0.337	0.307	0.278	0.279	0.534	0.342	0.385	0.329	0.29	0.371	0.786	0.831	0.802	0.122	0.306	0.192	0.203	0.159	0.821	0.477
H3255	0.31	0.325	0.275	0.251	0.472	0.171	0.528	0.387	0.383	0.233	0.632	0.719	0.542	0.172	0.664	0.358	0.2	0.161	0.808	0.624
HCC-44	0.991	1.03	0.982	–	–	–	0.682	0.724	0.662	0.639	0.814	0.833	0.548	0.399	0.94	0.621	0.294	0.321	–	–

— the supplement of paper PMC10307832
